Patent publication US20210085640A1, “ACYLATED CATECHIN POLYPHENOLS AND METHODS OF THEIR USE FOR THE TREATMENT OF CANCER” (Flagship Pioneering Innovations V, Inc., priority 2018, published 2021)

Tests used:
Format in all cases: cell-based
[1] = test system: A-431 skin cancer cells; assay: Cancer cell survival (CellTiter-Glo), A-431; conditions: Homo sapiens, A-431 cells, 72 h
Method in brief: (§1)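 Cells were seeded at 4×10^3 cells/well and left overnight at 37 C, 5% CO2, then exposed in triplicate to nine compound concentrations for 72 h. Dosing solutions were made at 10× final (1 μM-10 mM fatty acids, 100 nM-1 mM other compounds). CellTiter-Glo luminescence, normalised to untreated and medium-only wells, gave IC50.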

[2] = test system: HCT 116 colorectal cancer cells; assay: Cancer cell survival (CellTiter-Glo), HCT 116; conditions: Homo sapiens, HCT 116 cells, 72 h
Method in brief: as §1

[3] = test system: Daudi lymphoma cancer cells; assay: Cancer cell survival (CellTiter-Glo), Daudi; conditions: Homo sapiens, 72 h
Method in brief: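 Daudi cells (4×10^3/well) were exposed for 72 h at 37 °C to nine concentrations of compound, added as 10× solutions spanning 1 μM–10 mM (fatty acids) or 100 nM–1 mM (others). CellTiter-Glo luminescence gave % survival versus untreated, medium-blank corrected; IC50 derived.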

[4] = test system: A549 lung cancer cells; assay: Cancer cell survival (CellTiter-Glo), A549; conditions: Homo sapiens, 72 h
Method in brief: as §1

[5] = test system: AGS stomach cancer cells; assay: Cancer cell survival (CellTiter-Glo), AGS
Method in brief: as §1

[6] = test system: PC-3 prostate cancer cells; assay: Cancer cell survival (CellTiter-Glo), PC-3; conditions: Homo sapiens, PC-3 cells, 72 h
Method in brief: as §1

[7] = test system: T24 bladder cancer cells; assay: Cancer cell survival (CellTiter-Glo), T24; conditions: Homo sapiens
Method in brief: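 T24 cells seeded at 4×10^3 cells/well overnight, then exposed 72 h at 37 C, 5% CO2 to nine concentrations in triplicate. Survival measured by CellTiter-Glo luminescence relative to untreated and medium controls; IC50 derived.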

[8] = test system: MCF7 breast cancer cells; assay: Cancer cell survival (CellTiter-Glo), MCF7; conditions: Homo sapiens, 72 h
Method in brief: as §1

[9] = 101 nM, read-out: Cell survival at given concentration
[10] = 318 nM, read-out: Cell survival at given concentration
[11] = 1 μM, read-out: Cell survival at given concentration
[12] = 3 μM, read-out: Cell survival at given concentration
[13] = 10 μM, read-out: Cell survival at given concentration
[14] = 32 μM, read-out: Cell survival at given concentration
[15] = 100 μM, read-out: Cell survival at given concentration
[16] = 316 μM, read-out: Cell survival at given concentration
[17] = 1000 μM, read-out: Cell survival at given concentration

For `Oc1cc(O)c2c(c1)O[C@H](c1cc(O)c(O)c(O)c1)[C@H](O)C2` [EGC, epigallocatechin], the viability at 0.101 µM [1, 9] was 103%, the viability at 0.318 µM [1, 10] was 103% and the viability at 1 µM [1, 11] was 102%. It also gave a viability at 3 µM [1, 12] of 102%, a viability at 10 µM [1, 13] of 98% and a viability at 32 µM [1, 14] of 96%. For the same compound, the viability at 100 µM [1, 15] was 95%, the viability at 316 µM [1, 16] was 60% and the viability at 1000 µM [1, 17] was 0%. For the same compound, the IC50 ([1]; Table 9.1) was 385 µM, the viability at 0.101 µM [2, 9] was 99% and the viability at 0.318 µM [2, 10] was 98%. It also gave a viability at 1 µM [2, 11] of 100%, a viability at 3 µM [2, 12] of 101% and a viability at 10 µM [2, 13] of 99%. It also gave a viability at 32 µM [2, 14] of 97%, a viability at 100 µM [2, 15] of 1% and a viability at 316 µM [2, 16] of 0%. It also gave a viability at 1000 µM [2, 17] of 0%, an IC50 ([2]; Table 6.1) of 50.3 µM and a viability at 0.101 µM [3, 9] of 100%. For the same compound, the viability at 0.318 µM [3, 10] was 101%, the viability at 1 µM [3, 11] was 101% and the viability at 3 µM [3, 12] was 103%. It also gave a viability at 10 µM [3, 13] of 102%, a viability at 32 µM [3, 14] of 99% and a viability at 100 µM [3, 15] of 0%. It also gave a viability at 316 µM [3, 16] of 0%, a viability at 1000 µM [3, 17] of 0% and an IC50 ([3]; Table 4.1) of 47.5 µM. The viability at 0.101 µM [4, 9] was 98%, the viability at 0.318 µM [4, 10] was 100% and the viability at 1 µM [4, 11] was 100%. For the same compound, the viability at 3 µM [4, 12] was 100%, the viability at 10 µM [4, 13] was 94% and the viability at 32 µM [4, 14] was 96%. For the same compound, the viability at 100 µM [4, 15] was 94%, the viability at 316 µM [4, 16] was 81% and the viability at 1000 µM [4, 17] was 9%. The IC50 ([4]; Table 7.1) was 640 µM, the viability at 0.101 µM ([5]; 72 h, 101 nM, read-out: Cell survival at given concentration) was 103% and the viability at 0.318 µM ([5]; 72 h, 318 nM, read-out: Cell survival at given concentration) was 103%. For the same compound, the viability at 1 µM ([5]; 72 h, 1 μM, Table 10.1, read-out: Cell survival at given concentration) was 108%, the viability at 3 µM ([5]; 72 h, 3 μM, Table 10.1, read-out: Cell survival at given concentration) was 105% and the viability at 10 µM ([5]; 72 h, 10 μM, Table 10.1, read-out: Cell survival at given concentration) was 104%. For the same compound, the viability at 32 µM ([5]; 72 h, 32 μM, Table 10.1, read-out: Cell survival at given concentration) was 104%, the viability at 100 µM ([5]; 72 h, 100 μM, Table 10.1, read-out: Cell survival at given concentration) was 107% and the viability at 316 µM ([5]; 72 h, 316 μM, read-out: Cell survival at given concentration) was 80%. For the same compound, the viability at 1000 µM ([5]; 72 h, 1000 μM, read-out: Cell survival at given concentration) was 8%, the IC50 ([5]; Table 10.1) was 477 µM and the viability at 0.101 µM [6, 9] was 103%. It also gave a viability at 0.318 µM [6, 10] of 99%, a viability at 1 µM [6, 11] of 100% and a viability at 3 µM [6, 12] of 101%. The viability at 10 µM [6, 13] was 102%, the viability at 32 µM [6, 14] was 98% and the viability at 100 µM [6, 15] was 96%. For the same compound, the viability at 316 µM [6, 16] was 96%, the viability at 1000 µM [6, 17] was 36% and the IC50 ([6]; Table 8.1) was 899 µM. The viability at 0.101 µM ([7]; T-24, 101 nM, 72 h, read-out: Cell survival at given concentration) was 99%, the viability at 0.318 µM ([7]; T-24, 318 nM, 72 h, read-out: Cell survival at given concentration) was 103% and the viability at 1 µM ([7]; T-24, 1 μM, 72 h, read-out: Cell survival at given concentration) was 103%. It also gave a viability at 3 µM ([7]; T-24, 3 μM, 72 h, read-out: Cell survival at given concentration) of 101%, a viability at 10 µM ([7]; T-24, 10 μM, 72 h, read-out: Cell survival at given concentration) of 100% and a viability at 32 µM ([7]; T-24, 32 μM, 72 h, read-out: Cell survival at given concentration) of 84%. For the same compound, the viability at 100 µM ([7]; T-24, 100 μM, 72 h, read-out: Cell survival at given concentration) was 0%, the viability at 316 µM ([7]; T-24, 316 μM, 72 h, read-out: Cell survival at given concentration) was 0% and the viability at 1000 µM ([7]; T-24, 1000 μM, 72 h, read-out: Cell survival at given concentration) was 0%. For the same compound, the IC50 ([7]; T-24, 72 h, Table 3.1, read-out: 1050) was 40 µM, the viability at 0.101 µM [8, 9] was 93% and the viability at 0.318 µM [8, 10] was 97%. The viability at 1 µM [8, 11] was 97%, the viability at 3 µM [8, 12] was 102% and the viability at 10 µM [8, 13] was 92%. For the same compound, the viability at 32 µM [8, 14] was 100%, the viability at 100 µM [8, 15] was 90% and the viability at 316 µM [8, 16] was 56%. For the same compound, the viability at 1000 µM [8, 17] was 2% and the IC50 ([8]; Table 5.1) was 355 µM.
